Laboratory results reported in PubChem BioAssay (NCI).
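Growth conditions: 96-well plates. Treatment: test compound, 48 hours, 5 concentrations. Analysis: linear interpolation between bracketing concentrations; unreached endpoints set to highest concentration. At the GI50, growth is halved. The concentration for full growth arrest is given as TGI.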

Experiments:
Experiment in all cases: DTP human tumour cell line panel, 48 h
KM12 colon = system: KM12 colon
M14 melanoma = system: M14 melanoma
NCI-H226 lung = system: NCI-H226 lung
NCI-H460 lung = system: NCI-H460 lung
OVCAR-5 ovarian = system: OVCAR-5 ovarian
SF-295 CNS = system: SF-295 CNS
SK-OV-3 ovarian = system: SK-OV-3 ovarian
MDA-MB-231 breast = system: MDA-MB-231 breast
SK-MEL-28 melanoma = system: SK-MEL-28 melanoma
HOP-92 NSCLC = system: HOP-92 NSCLC

| SMILES | TGI (KM12 colon) [µM] | TGI (M14 melanoma) [µM] | TGI (NCI-H226 lung) [µM] | TGI (NCI-H460 lung) [µM] | TGI (OVCAR-5 ovarian) [µM] | TGI (SF-295 CNS) [µM] | TGI (SK-OV-3 ovarian) [µM] | TGI (MDA-MB-231 breast) [µM] | TGI (SK-MEL-28 melanoma) [µM] | TGI (HOP-92 NSCLC) [µM] | GI50 (HOP-92 NSCLC) [µM] | GI50 (KM12 colon) [µM] | GI50 (M14 melanoma) [µM] | GI50 (OVCAR-5 ovarian) [µM] | GI50 (SF-295 CNS) [µM] | GI50 (SK-MEL-28 melanoma) [µM] | GI50 (SK-OV-3 ovarian) [µM] | GI50 (NCI-H226 lung) [µM] | GI50 (NCI-H460 lung) [µM] | GI50 (MDA-MB-231 breast) [µM] |
| --- | --- | --- | --- | --- | --- | --- | --- | --- | --- | --- | --- | --- | --- | --- | --- | --- | --- | --- | --- | --- |
| Cc1cc(C)nc(NS(=O)(=O)c2ccc(Nc3c4ccccc4nc4c(C(=O)Nc5ccc(S(=O)(=O)N=C(N)N)cc5)ccc(Cl)c34)cc2)n1 | > 100 | > 100 | 58.1 | > 100 | > 100 | > 100 | 51 | – | – | – | – | – | – | – | – | – | – | – | – | – |
| O=[N+]([O-])c1ccc(C(c2c[nH]c3ccccc23)c2c[nH]c3ccccc23)cc1 | 28.1 | 33.2 | 32.1 | 12.6 | 54.4 | > 100 | 33.1 | 29.3 | 36.1 | – | – | – | – | – | – | – | – | – | – | – |
| Cn1c2c(c3ccccc31)CCN(CCCCN1CCc3c(n(C)c4ccccc34)C1=O)C2 | – | > 100 | – | > 100 | > 100 | > 100 | > 100 | – | > 100 | > 100 | – | – | – | – | – | – | – | – | – | – |
| Cc1ccc(-[n+]2c3cc(N)c(C)cc3nc3cc(C)c(Nc4ccccc4)cc32)cc1 | 0.3 | 0.428 | – | – | 1.48 | 0.181 | 1.62 | – | 1.33 | 0.556 | 0.15 | 0.0767 | 0.134 | 0.357 | 0.0646 | 0.266 | 0.258 | – | – | – |
| Nc1ccn(CCOC(=O)c2ccccc2)c(=O)n1 | > 100 | > 100 | > 100 | > 100 | > 100 | > 100 | > 100 | – | > 100 | > 100 | – | – | – | – | – | – | – | – | – | – |
| Nn1c(-c2ccccc2)nc2ccc(Br)cc2c1=O | > 100 | > 100 | > 100 | > 100 | > 100 | > 100 | > 100 | – | > 100 | 98 | – | – | – | – | – | – | – | – | – | – |
| CCC[CH2][Sn-]([CH2]CCC)([CH2]CCC)[O]c1cc(Cl)c(Cl)cc1Cl | 0.402 | – | 0.244 | 0.344 | – | 0.732 | 0.379 | – | 0.365 | 0.395 | 0.106 | 0.195 | – | – | 0.263 | 0.167 | 0.15 | 0.00872 | 0.165 | – |
| O=C1C(=O)N(C(=O)c2ccc(Cl)c(Cl)c2)c2ccccc21 | > 100 | > 100 | > 100 | – | > 100 | > 100 | > 100 | – | > 100 | – | – | – | – | – | – | – | – | – | – | – |
| N#CCC(=O)Nc1cccc(C(F)(F)F)c1 | > 100 | > 100 | > 100 | > 100 | > 100 | > 100 | > 100 | – | > 100 | – | – | – | – | – | – | – | – | – | – | – |
| COC(=O)C1CC2(CC3=C1CCCC3)OCCO2 (centres undefined) | > 100 | > 100 | – | > 100 | – | > 100 | > 100 | – | > 100 | > 100 | – | – | – | – | – | – | – | – | – | – |
| CCOC(=O)C(=O)Nc1nc2c(s1)C(=O)c1ccccc1C2=O | 30.6 | 32.7 | 34.4 | 45.8 | 42.5 | – | – | – | 27.6 | 25.3 | – | – | – | – | – | – | – | – | – | – |
| O=C1CC(O)C=C1Nc1ccc(Cl)cc1 (centres undefined) | 39.2 | > 100 | > 100 | > 100 | > 100 | > 100 | > 100 | – | > 100 | > 100 | – | – | – | – | – | – | – | – | – | – |
| COc1cc(OC)c([C@@H]2OC(=O)C3C2C(=O)O[C@H]3c2cc(OC)c(OC)cc2OC)cc1OC (some centres undefined) | > 100 | > 100 | – | > 100 | – | > 100 | > 100 | – | > 100 | > 10 | – | – | – | – | – | – | – | – | – | – |
| CNC(P(=O)([O-])[O-])P(=O)([O-])[O-].N.N.[Pt+2] | – | > 100 | > 100 | > 100 | > 100 | > 100 | – | – | > 100 | – | – | – | > 100 | > 100 | > 100 | > 100 | – | > 100 | 51.2 | – |
| Cc1cnc2c(C)ccc([N+](=O)[O-])c2c1NCCCN(C)C | > 100 | > 100 | > 100 | > 100 | > 100 | > 100 | > 100 | – | > 100 | – | – | – | – | – | – | – | – | – | – | – |
| CCOC(=O)[C@@]1(C)C=C2O[C@@H]3OC4(CCCCC4)O[C@@H]3C2=C2C(O)=CC=C(O)[C@]21C(=O)OC | > 68 | > 68 | > 68 | > 68 | > 68 | > 68 | > 68 | – | > 68 | 33.8 | – | – | – | – | – | – | – | – | – | – |
| CCc1cccc(C(C)C)c1NC(=O)C(=O)C(Cc1nc2ccccc2[nH]c1=O)C(=O)OC (centres undefined) | > 100 | > 100 | > 100 | > 100 | > 100 | > 100 | > 100 | – | > 100 | > 100 | – | – | – | – | – | – | – | – | – | – |
| N=C1C(c2nc(-c3ccc(Br)cc3)cs2)=C(O)CN1Cc1cccnc1 | > 100 | – | 33.3 | > 100 | 42.8 | 81.3 | > 100 | 43.5 | 51.7 | 84.1 | 22.2 | 18.9 | – | 2.66 | 16.6 | 15.7 | 25.3 | 11.2 | 12.3 | 15.9 |
| COc1nc(N(C)O)nc(N(C)O)n1 | > 100 | – | 55.4 | 8.62 | – | 9.69 | > 100 | > 100 | > 100 | – | – | 2.99 | – | – | 2.2 | 2.41 | 1.75 | 2.48 | 0.454 | 3.54 |
| Cn1c(=O)nc2n(-c3ccc(Cl)cc3)c3ccc(Cl)cc3nc-2c1=O | 32 | 21.8 | 27.9 | 33.7 | 29.6 | 19 | > 100 | – | 21.4 | 25.1 | – | – | – | – | – | – | – | – | – | – |
| O=c1c2ccccc2[nH]c(=S)n1-c1ccc(Br)cc1 | > 100 | – | > 100 | > 100 | – | > 100 | – | – | > 100 | 70 | – | – | – | – | – | – | – | – | – | – |
